Results: patent US20240139220A1, “TREATMENT OF HPV INFECTION” (priority 2022, published 2024)

Experiments:
Type in all cases: physicochemical
[1] = Solubility in buffers, water and simulated vaginal fluid at 37° C.
Experimental: About 4 mg of Compound I Pattern 1 was added into 2 mL of buffer solution.
(§1) Solubility was tested in five media, pH 3.0 citrate buffer, pH 4.5 acetate buffer, pH 6.8 phosphate buffer, water, simulated vaginal fluid (pH 4.2) at 37° C. for 0.5 h and 2 h.
The salt amount used is equivalent to 10 mg anhydrous free base. […] The obtained clear solutions were analyzed by pH meter for pH, and solubility was determined by observation.
as §1

[2] = Polymorph screening by equilibration in solvents at 25° C. (XRPD)
[3] = Bulk stability, accelerated storage for one week (HPLC, XRPD); conditions: for Stability after exposure to the three conditions: 25° C./92% RH open, 40° C./75% RH open, 60° C. tight container; for Stability after exposure to the three conditions / Degradation product increase: one week; for Bulk (XRPD) / Color / Purity, Bulk (HPLC): 1 week; for Initial HPLC purity: before storage
Experimental: Bulk stability: Accelerated stability experiments were conducted at 25° C./92% RH and 40° C./75% RH in an open container, 60° C. in a tight container for one week.
Samples were characterized by XRPD and HPLC and inspected for color change.
Accelerated stability experiments were conducted at 25° C./92% RH in an open container, at 40° C./75% RH in an open container, and at 60° C. in a tight container for one week.

[4] = Hygroscicity by Dynamic Vapor Sorption (DVS) at 25° C.; conditions: for Desorp. (%) Cycle 1 / Desorp. (%) Cycle 2 / Sorp. (%) Cycle 1 / Sorp. (%) Cycle 2 / Hygroscopicity / Water uptake: DVS 25° C.; for XRPD after DVS test: 25° C.; for Water uptake: up to 95% RH
Experimental: Hygroscopicity was investigated by DVS at 25° C., using the following method: […]

[5] = ES1: pH 3.0, 100 mM citrate buffer
[6] = ES2: pH 4.5, 50 mM acetate buffer
[7] = ES3: pH 6.8, 50 mM phosphate buffer
[8] = ES5: Simulated vaginal fluid (pH adjusted by 0.1N NaOH)
[9] = BS1: solid state, 25° C./92% RH, open container
[10] = BS2: solid state, 40° C./75% RH, open container
[11] = BS3: solid state, 60° C., tight container

## CCOC(=O)C(C)NP(=O)(COCCn1cnc2c(OC)nc(N)nc21)OCc1ccccc1.O=C(O)C=CC(=O)O (stereo not shown) [Compound II Pattern 1]
[1]; [5]
  Solubility 0.5 hours: >2000 µg/mL
  Solubility 2 hours: > 2000 µg/mL
  pH of solution, 2 hours: 2.85
[1]; [6]
  Solubility 0.5 hours: >2000 µg/mL
  Solubility 2 hours: > 2000 µg/mL
  pH of solution, 2 hours: 4.2
[1]; [7]
  Solubility 0.5 hours: >2000 µg/mL
  Solubility 2 hours: > 2000 µg/mL
  pH of solution, 2 hours: 6.47
[1]; ES4: Water
  Solubility 0.5 hours: >2000 µg/mL
  Solubility 2 hours: > 2000 µg/mL
  pH of solution, 2 hours: 2.87
[1]; [8]
  Solubility 0.5 hours: >2000 µg/mL
  Solubility 2 hours: > 2000 µg/mL
  pH of solution, 2 hours: 5.79
[2]; PS1: IPA
  Crystal modification after 1 week equilibration (XRPD): Compound II Pattern 1
[2]; PS2: Heptanes
  Crystal modification after 1 week equilibration (XRPD): Compound II Pattern 1
[2]; PS3: Water
  Crystal modification after 1 week equilibration (XRPD): Compound II Pattern 1
[2]; PS4: ACN
  Crystal modification after 1 week equilibration (XRPD): Compound II Pattern 2
[2]; PS5: MEK
  Crystal modification after 1 week equilibration (XRPD): Compound II Pattern 3
[2]; PS6: Acetone
  Crystal modification after 1 week equilibration (XRPD): Compound II Pattern 1
[2]; PS7: IPA/heptanes (3/10, v/v)
  Crystal modification after 1 week equilibration (XRPD): Compound II Pattern 1
[2]; PS8: water/ACN (2.9/97.1, v/v)
  Crystal modification after 1 week equilibration (XRPD): Compound II Pattern 2
[2]; PS9: IPA/MTBE (1/3, v/v)
  Crystal modification after 1 week equilibration (XRPD): Compound II Pattern 1
[2]; PS10: EA/toluene (1/3, v/v)
  Crystal modification after 1 week equilibration (XRPD): Compound II Pattern 1
[3]
  Stability after exposure to the three conditions: good physical and chemical stability
  Initial HPLC purity: 99.7%
[3]; [9]
  Bulk (XRPD): No form change
  Color: No change
  Purity, Bulk (HPLC): 99.5%
[3]; [10]
  Bulk (XRPD): No form change
  Color: No change
  Purity, Bulk (HPLC): 99.4%
[3]; [11]
  Bulk (XRPD): No form change
  Color: No change
  Purity, Bulk (HPLC): 99.7%
[4]; 0% RH
  Desorp. (%) Cycle 1: 0.03%
  Desorp. (%) Cycle 2: 0.03%
  Sorp. (%) Cycle 1: 0.03%
  Sorp. (%) Cycle 2: 0.03%
[4]; 10% RH
  Desorp. (%) Cycle 1: 0.05%
  Desorp. (%) Cycle 2: 0.05%
  Sorp. (%) Cycle 1: 0.04%
  Sorp. (%) Cycle 2: 0.04%
[4]; 20% RH
  Desorp. (%) Cycle 1: 0.08%
  Desorp. (%) Cycle 2: 0.07%
  Sorp. (%) Cycle 1: 0.06%
  Sorp. (%) Cycle 2: 0.06%
[4]; 30% RH
  Desorp. (%) Cycle 1: 0.10%
  Desorp. (%) Cycle 2: 0.08%
  Sorp. (%) Cycle 1: 0.08%
  Sorp. (%) Cycle 2: 0.07%
[4]; 40% RH
  Desorp. (%) Cycle 1: 0.17%
  Desorp. (%) Cycle 2: 0.10%
  Sorp. (%) Cycle 1: 0.10%
  Sorp. (%) Cycle 2: 0.09%
[4]; 40-0-95-0-40% RH
  XRPD after DVS test: No form change
[4]; 50% RH
  Desorp. (%) Cycle 2: 0.12%
  Sorp. (%) Cycle 1: 0.12%
[4]; 60% RH
  Desorp. (%) Cycle 2: 0.14%
  Sorp. (%) Cycle 1: 0.13%
[4]; 70% RH
  Desorp. (%) Cycle 2: 0.18%
  Sorp. (%) Cycle 1: 0.16%
[4]; 80% RH
  Desorp. (%) Cycle 2: 0.21%
  Sorp. (%) Cycle 1: 0.19%
[4]; 90% RH
  Desorp. (%) Cycle 2: 0.24%
  Sorp. (%) Cycle 1: 0.23%
[4]; 95% RH
  Desorp. (%) Cycle 2: 0.24%
  Sorp. (%) Cycle 1: 0.24%
[4]
  Hygroscopicity: slightly hygroscopic
  Water uptake: about 0.2%
[4]; cycle 40-0-95-0-40% RH
  XRPD after DVS test: No form change

## CCOC(=O)C(C)NP(=O)(COCCn1cnc2c(OC)nc(N)nc21)OCc1ccccc1.O=C(O)C=CC(=O)O (stereo not shown) [Compound III Pattern 2]
[1]; [5]
  Solubility 0.5 hours: >2000 µg/mL
  Solubility 2 hours: > 2000 µg/mL
  pH of solution, 2 hours: 2.83
[1]; [6]
  Solubility 0.5 hours: >2000 µg/mL
  Solubility 2 hours: > 2000 µg/mL
  pH of solution, 2 hours: 4.12
[1]; [7]
  Solubility 0.5 hours: >2000 µg/mL
  Solubility 2 hours: > 2000 µg/mL
  pH of solution, 2 hours: 6.44
[1]; ES4: Water
  Solubility 0.5 hours: >2000 µg/mL
  Solubility 2 hours: > 2000 µg/mL
  pH of solution, 2 hours: 2.78
[1]; [8]
  Solubility 0.5 hours: >2000 µg/mL
  Solubility 2 hours: > 2000 µg/mL
  pH of solution, 2 hours: 5.37
[2]; PS1: IPA
  Crystal modification after 1 week equilibration (XRPD): Compound V Pattern 2
[2]; PS2: Heptanes
  Crystal modification after 1 week equilibration (XRPD): Compound III Pattern 2
[2]; PS3: Water
  Crystal modification after 1 week equilibration (XRPD): Compound III Pattern 3
[2]; PS4: ACN
  Crystal modification after 1 week equilibration (XRPD): Compound III Pattern 4
[2]; PS5: MEK
  Crystal modification after 1 week equilibration (XRPD): Compound III Pattern 5
[2]; PS7: IPA/heptanes (3/10, v/v)
  Crystal modification after 1 week equilibration (XRPD): Compound III Pattern 2
[2]; PS8: water/ACN (2.9/97.1, v/v)
  Crystal modification after 1 week equilibration (XRPD): Compound III Pattern 4
[2]; PS9: IPA/MTBE (1/3, v/v)
  Crystal modification after 1 week equilibration (XRPD): Compound III Pattern 6
[2]; PS10: EA/toluene (1/3, v/v)
  Crystal modification after 1 week equilibration (XRPD): Compound III Pattern 2
[3]
  Stability after exposure to the three conditions: good physical stability
  Initial HPLC purity: 98.8%
[3]; 40° C./75% RH in an open container
  Degradation product increase: 1.6%
[3]; 60° C. in a tight container
  Degradation product increase: 1.5%
[3]; [9]
  Bulk (XRPD): No form change
  Color: No change
  Purity, Bulk (HPLC): 98.7%
[3]; [10]
  Bulk (XRPD): No form change (One
  Color: No change
  Purity, Bulk (HPLC): 97.2%
[3]; [11]
  Bulk (XRPD): No form change (One
  Color: No change
  Purity, Bulk (HPLC): 97.3%
[4]; 0% RH
  Desorp. (%) Cycle 1: 0.00%
  Desorp. (%) Cycle 2: 0.00%
  Sorp. (%) Cycle 1: 0.00%
  Sorp. (%) Cycle 2: 0.00%
[4]; 10% RH
  Desorp. (%) Cycle 1: 0.07%
  Desorp. (%) Cycle 2: 0.07%
  Sorp. (%) Cycle 1: 0.07%
  Sorp. (%) Cycle 2: 0.07%
[4]; 20% RH
  Desorp. (%) Cycle 1: 0.15%
  Desorp. (%) Cycle 2: 0.15%
  Sorp. (%) Cycle 1: 0.14%
  Sorp. (%) Cycle 2: 0.14%
[4]; 30% RH
  Desorp. (%) Cycle 1: 0.23%
  Desorp. (%) Cycle 2: 0.23%
  Sorp. (%) Cycle 1: 0.22%
  Sorp. (%) Cycle 2: 0.22%
[4]; 40% RH
  Desorp. (%) Cycle 1: 0.30%
  Desorp. (%) Cycle 2: 0.32%
  Sorp. (%) Cycle 1: 0.29%
  Sorp. (%) Cycle 2: 0.30%
[4]; 40-0-95-0-40% RH
  XRPD after DVS test: No form change
[4]; 50% RH
  Desorp. (%) Cycle 2: 0.41%
  Sorp. (%) Cycle 1: 0.39%
[4]; 60% RH
  Desorp. (%) Cycle 2: 0.52%
  Sorp. (%) Cycle 1: 0.47%
[4]; 70% RH
  Desorp. (%) Cycle 2: 0.67%
  Sorp. (%) Cycle 1: 0.59%
[4]; 80% RH
  Desorp. (%) Cycle 2: 0.81%
  Sorp. (%) Cycle 1: 0.71%
[4]; 90% RH
  Desorp. (%) Cycle 2: 0.97%
  Sorp. (%) Cycle 1: 0.92%
[4]; 95% RH
  Desorp. (%) Cycle 2: 1.01%
  Sorp. (%) Cycle 1: 1.01%
[4]
  Hygroscopicity: slightly hygroscopic
  Water uptake: about 1.0%
[4]; cycle 40-0-95-0-40% RH
  XRPD after DVS test: No form change
